Laboratory results published in US7790721B2, “Pyrroloquinoxalinone inhibitors of poly(ADP-ribose)polymerase” (Abbott Laboratories, priority 2006, dated 2010).
Like-named read-outs stand apart in the source and are kept apart here.

Legend:
PARP-1 = biological target: T1, PARP-1 (Homo sapiens, UniProt P09874); experiment: PARP1 assay (inhibition of PARP, [3H]-NAD+ / biotinylated histone H1, FlashPlate scintillation); assay type: biochemical
T1 construct: purchased Trevigen (Gaithersburg, Md.); host or cells: E. coli
Protocol: Nicotinamide[2,5′,8-3H]adenine dinucleotide and strepavidin SPA beads were purchased from Amersham Biosiences (Buckinghamshire, U.K.). […] NAD^+, histone, aminobenzamide, 3-amino benzamide and Calf Thymus DNA (dcDNA) were purchased from Sigma (St. Louis, Mo.). […] Biotinylated histone H1 was prepared by treating the protein with Sulfo-NHS-LC-Biotin from Pierce (Rockford, Ill.). The biotinylation reaction was conducted by slowly and intermittently adding 3 equivalents of 10 mM Sulfo-NHS-LC-Biotin to 100 μM Histone H1 in phosphate-buffered saline, pH 7.5, at 4° C. with gentle vortexing over 1 minute followed by subsequent 4° C. incubation for 1 hour. Streptavidin coated (FLASHPLATE PLUS®) microplates were purchased from Perkin Elmer (Waltham, Mass.).
PARP1 assay was conducted in PARP assay buffer containing 50 mM Tris pH 8.0, 1 mM DTT, 4 mM MgCl2. […] Auto reactions utilizing SPA bead-based detection were carried out in 100 μL volumes in white 96 well plates. Reactions were initiated by adding 50 μl of 2× NAD^+ substrate mixture to 50 μL of 2× enzyme mixture containing PARP and DNA. […] 170 μL of the stopped reaction mixtures were transferred to streptavidin FLASHPLATE PLUS®, incubated for 1 hour, and counted using a TOPCOUNT® microplate scintillation counter from Perkin Elmer (Waltham, Mass.).

PARP in C41 cells = biological target: T2, PARP in C41 cells (Homo sapiens, UniProt P09874); experiment: Cellular PARP assay (PAR formation after H2O2 DNA damage, anti-PAR immunofluorescence); assay type: cell-based; details: compound 30 minutes, then 1 mM H2O2 for 10 minutes, FITC signal normalized with DAPI, read-out: Cell, EC50
T2 construct: endogenous in cells; host or cells: C41 cells
Protocol: C41 cells were treated with a compound of this invention for 30 minutes in 96 well plate. PARP was then activated by damaging DNA with 1 mM H2O2 for 10 minutes. The cells were then washed with ice-cold PBS once and fixed with pre-chilled methanol:acetone (7:3) at −20° C. for 10 minutes. After air-drying, the plates were rehydrated with PBS and blocked 5% non-fat dry milk in PBS-TWEEN20® (Sigma, St. Louis, Mo.) (0.05%) (blocking solution) for 30 minutes at room temperature. The cells were incubated with anti-PAR antibody 10H (1:50) in Blocking solution at 37° C. for 60 minutes followed by washing with PBS-TWEEN20® 5 times, and incubation with goat anti-mouse fluorescein 5(6)-isothiocyanate-coupled antibody (1:50) and 1 μg/ml 4′,6-diamidino-2-phenylindole (DAPI) in blocking solution at 37° C. for 60 minutes. […] The PARP activity (FITC signal) was normalized with cell numbers (DAPI).

[1] = recombinant human PARP, 1 nM enzyme, 1.5 μM [3H]-NAD+, inhibition curves at various substrate concentrations, read-out: PARP-1 (Ki)

T1 sequence (P09874 whole entry): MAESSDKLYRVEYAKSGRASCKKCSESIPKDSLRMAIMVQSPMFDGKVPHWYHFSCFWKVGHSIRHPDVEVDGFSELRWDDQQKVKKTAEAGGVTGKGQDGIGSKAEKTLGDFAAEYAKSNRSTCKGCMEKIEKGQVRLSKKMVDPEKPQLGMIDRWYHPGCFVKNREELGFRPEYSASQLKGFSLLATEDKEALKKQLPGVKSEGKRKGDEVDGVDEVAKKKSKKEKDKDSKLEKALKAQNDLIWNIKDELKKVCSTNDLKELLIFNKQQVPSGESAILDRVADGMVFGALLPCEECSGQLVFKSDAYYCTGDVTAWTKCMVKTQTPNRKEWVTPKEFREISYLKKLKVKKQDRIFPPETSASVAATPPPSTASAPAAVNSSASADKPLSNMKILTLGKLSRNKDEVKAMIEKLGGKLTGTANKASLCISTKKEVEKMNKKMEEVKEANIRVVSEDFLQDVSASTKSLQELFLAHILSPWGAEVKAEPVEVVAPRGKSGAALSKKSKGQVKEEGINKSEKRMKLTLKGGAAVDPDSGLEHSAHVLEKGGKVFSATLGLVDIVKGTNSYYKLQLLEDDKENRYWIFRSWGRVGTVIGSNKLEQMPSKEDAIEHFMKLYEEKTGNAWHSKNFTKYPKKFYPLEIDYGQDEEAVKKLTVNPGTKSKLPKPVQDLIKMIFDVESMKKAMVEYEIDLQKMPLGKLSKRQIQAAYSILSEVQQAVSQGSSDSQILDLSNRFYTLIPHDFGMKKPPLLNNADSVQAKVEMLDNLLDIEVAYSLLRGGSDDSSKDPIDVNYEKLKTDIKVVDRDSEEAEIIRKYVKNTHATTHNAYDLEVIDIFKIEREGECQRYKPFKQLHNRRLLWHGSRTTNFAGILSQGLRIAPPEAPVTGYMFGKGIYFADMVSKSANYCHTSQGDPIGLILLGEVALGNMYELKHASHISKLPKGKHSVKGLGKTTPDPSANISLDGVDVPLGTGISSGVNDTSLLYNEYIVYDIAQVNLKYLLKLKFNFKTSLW
T2 sequence (P09874 whole entry): as above

| Ki (PARP-1) | Ki (PARP-1; [1]) | Compound | EC50 (PARP in C41 cells) |
| --- | --- | --- | --- |
|  | 35 nM | NC1CCN(Cc2ccc3c(c2)[nH]c(=O)c2cccn23)CC1 [Example 86, 7-[(4-aminopiperidin-1-yl)methyl]pyrrolo[1,2-a]quinoxalin-4(5H)-one] | 204 nM |
|  | 23 nM | CN1CCN(CCCNC(=O)c2ccc3c(c2)[nH]c(=O)c2cccn23)CC1 [Example 66, N-[3-(4-methylpiperazin-1-yl)propyl]-4-oxo4,5-dihydropyrrolo[1,2-a]quinoxaline-7-carboxamide] | 32 nM |
|  | 917 nM | CCS(=O)(=O)N(Cc1ccc2[nH]c(=O)c3cccn3c2c1)C1CCC1 [Example 53, N-cyclobutyl-N-[(4-oxo-4,5-dihydropyrrolo[1,2-a]quinoxalin-8-yl)methyl]ethanesulfonamide] |  |
|  | 635 nM | CC(C)N(Cc1ccc2[nH]c(=O)c3cccn3c2c1)S(=O)(=O)c1ccccc1 [Example 54, N-isopropyl-N-[(4-oxo-4,5-dihydropyrrolo[1,2-a]quinoxalin-8-yl)methyl]benzenesulfonamide] |  |
|  | 139 nM | O=C(NCCCN1CCCCC1)c1ccc2c(c1)[nH]c(=O)c1cccn12 [Example 70, 4-oxo-N-(3-piperidin-1-ylpropyl)-4,5-dihydropyrrolo[1,2-a]quinoxaline-7-carboxamide] |  |
|  | 909 nM | CS(=O)(=O)N(Cc1ccc2c(c1)[nH]c(=O)c1cccn12)C1CC1 [Example 56, N-cyclopropyl-N-[(4-oxo-4,5-dihydropyrrolo[1,2-a]quinoxalin-7-yl)methyl]methanesulfonamide] |  |
|  | 1640 nM | O=C(Nc1cccc(S(=O)(=O)N2CCCCC2)c1)c1ccc2c(c1)[nH]c(=O)c1cccn12 [Example 75, 4-oxo-N-[3-(piperidin-1-ylsulfonyl)phenyl]4,5-dihydropyrrolo[1,2-a]quinoxaline-7-carboxamide] |  |
|  | 2160 nM | CN(Cc1ccc2c(c1)NC(=O)C1CCCN21)C1CCCCC1 (stereo not drawn) [Example 47, 7-{[cyclohexyl(methyl)amino]methyl}-1,2,3,3a-tetrahydropyrrolo[1,2-a]quinoxalin-4(5H)-one] |  |
|  | 779 nM | CS(=O)(=O)N(Cc1ccc2[nH]c(=O)c3cccn3c2c1)C1CC1 [Example 51, N-cyclopropyl-N-[(4-oxo4,5-dihydropyrrolo[1,2-a]quinoxalin-8-yl)methyl]methanesulfonamide] |  |
|  | 16 nM | O=C(c1ccc2c(c1)[nH]c(=O)c1cccn12)N1CCCCC1 [Example 85, 7-(piperidin-1-ylcarbonyl)pyrrolo[1,2-a]quinoxalin-4(5H)-one] | 23 nM |
|  | 163 nM | CN(C)C1CCC(NCc2ccc3c(c2)[nH]c(=O)c2cccn23)CC1 (stereo not drawn) [Example 72, 7-({[4-(dimethylamino)cyclohexyl]amino}methyl)pyrrolo[1,2-a]quinoxalin-4(5H)-one] |  |
|  | 98 nM | O=C(Nc1nccs1)c1ccc2c(c1)[nH]c(=O)c1cccn12 [Example 84, 4-oxo-N-1,3-thiazol-2-yl-4,5-dihydropyrrolo[1,2-a]quinoxaline-7-carboxamide] |  |
|  | 1140 nM | O=C1NCc2cc(CN3CCCCC3)ccc2-n2cccc21 [Example 57, 8-(piperidin-1-ylmethyl)-5,6-dihydro-4H-pyrrolo[1,2-a][1,4]benzodiazepin4-one] |  |
|  | 427 nM | CN(C)CCNCc1ccc2c(c1)[nH]c(=O)c1cccn12 [Example 65, 7-({[2-(dimethylamino)ethyl]amino}methyl)pyrrolo[1,2-a]quinoxalin-4(5H)-one] |  |
|  | 211 nM | O=C(NCCCN1CCOCC1)c1ccc2c(c1)[nH]c(=O)c1cccn12 [Example 63, N-(3-morpholin-4-ylpropyl)-4-oxo-4,5-dihydropyrrolo[1,2-a]quinoxaline-7-carboxamide] |  |
|  | 1350 nM | CN(Cc1ccccc1)Cc1ccc2c(c1)NC(=O)C1CCCN21 (stereo not drawn) [Example 49, 7-{[benzyl(methyl)amino]methyl}-1,2,3,3a-tetrahydropyrrolo[1,2-a]quinoxalin-4(5H)-one] |  |

The next lines start with the compound.

| Compound | Ki (PARP-1) | Ki (PARP-1; [1]) | EC50 (PARP in C41 cells) |
| --- | --- | --- | --- |
| O=c1[nH]c2ccc(CNC3CC3)cc2n2cccc12 [Example 12, 8-((cyclopropylamino)methyl)pyrrolo[1,2-a]quinoxalin-4(5H)-one] | 32 nM |  | 13 nM |
| CN(C)Cc1ccc2c(c1)NC(=O)C1CCCN21 (stereo not drawn) [Example 44, 7-[(dimethylamino)methyl]-1,2,3,3a-tetrahydropyrrolo[1,2-a]quinoxalin-4(5H)-one] | 60 nM |  | 143 nM |
| O=c1[nH]c2ccc(CNCC3CCCCC3)cc2n2cccc12 [Example 9, 8-(((cyclohexylmethyl)amino)methyl)pyrrolo[1,2-a]quinoxalin-4(5H)-one] |  | 206 nM |  |
| O=c1[nH]c2cc(CN3CCCC3)ccc2n2cccc12 [Example 7, 7-(pyrrolidin-1-ylmethyl)pyrrolo[1,2-a]quinoxalin-4(5H)-one] | 6 nM |  | 5.4 nM |
| O=C1NCc2cc(CNC3CCCC3)ccc2-n2cccc21 [Example 33, 8-((cyclopentylamino)methyl)-5,6-dihydro-4H-pyrrolo[1,2-a][1,4]benzodiazepin-4-one] |  | 554 nM |  |
| CC(C)NCc1ccc2c(c1)CNC(=O)c1cccn1-2 [Example 28, 8-((isopropylamino)methyl)-5,6-dihydro-4H-pyrrolo[1,2-a][1,4]benzodiazepin-4-one] |  | 1470 nM |  |
| CCN(C)Cc1ccc2c(c1)NC(=O)C1CCCN21 (stereo not drawn) [Example 46, 7-{[ethyl(methyl)amino]methyl}-1,2,3,3a-tetrahydropyrrolo[1,2-a]quinoxalin-4(5H)-one] |  | 130 nM |  |
| CC(C)NCc1ccc2[nH]c(=O)c3cccn3c2c1 [Example 13, 8-((isopropylamino)methyl)pyrrolo[1,2-a]quinoxalin-4(5H)-one] |  | 44 nM | 37 nM |
| CN1CCN(Cc2ccc3c(c2)NC(=O)C2CCCCN32)CC1 (stereo not drawn) [Example 42, 3-[(4-methylpiperazin-1-yl)methyl]-7,8,9,10-tetrahydro-5H-pyrido[1,2-a]quinoxalin-6(6aH)-one] |  | 7790 nM |  |
| O=c1[nH]c2cc(CNCC3CCCCC3)ccc2n2cccc12 [Example 2, 7-(((cyclohexylmethyl)amino)methyl)pyrrolo[1,2-a]quinoxalin-4(5H)-one] |  | 91 nM |  |
| 8-(((2-ethoxyethyl)(methyl)amino)methyl)-5,6-dihydro-4H-pyrrolo[1,2-a][1,4]benzodiazepin-4-one [Example 30] |  | 2650 nM |  |
| O=c1[nH]c2cc(CNC3CCCCC3)ccc2n2cccc12 [Example 1, 7-((cyclohexylamino)methyl)pyrrolo[1,2-a]quinoxalin-4(5H)-one] |  | 474 nM |  |
| O=c1[nH]c2ccc(CN3CCOCC3)cc2n2cccc12 [Example 17, 8-(morpholin-4-ylmethyl)pyrrolo[1,2-a]quinoxalin-4(5H)-one] |  | 130 nM |  |
